Experiments:
CD63 = CD63 levels in HEK293 cells; format: cell-based, human; details: A53T a-syn
Description: Infected or transfected cells were scraped from six-well dishes and lysed with lysis buffer (50 mM Tris-HCl pH 7.4, 1% Nonidet P-40, 150 mM NaCl, 1 mM EDTA, 1× protease inhibitor mixture (Sigma)) for 30 min at 4 °C. The insoluble pellet was removed following a 10,000 rpm spin for 5 min at 4 °C. Lysates were analyzed by SDS-PAGE/immunoblot using 4–20% Mini-PROTEAN Tris-glycine gels (Bio-Rad), transferred to polyvinylidene fluoride (PVDF) membranes, and blocked in 5% milk containing PBS-Tween-20 (0.1%) for 1 h. PVDF membranes were then incubated with specified primary antibodies followed by incubation with horseradish peroxidase-conjugated secondary antibodies (anti-mouse HRP-linked, Cell Signaling, catalog #7076, 1:5000; anti-rabbit HRP-linked, Cell Signaling, catalog #7074, 1:5000) and detected using enhanced chemiluminescence (GE Healthcare). Anti-a-syn antibody (clone 42) was obtained from BD Biosciences (catalog #610787, 1:1000). Anti-LAMP1 antibody was obtained from Abcam (catalog #ab24170, 1:500). Anti-beta-actin antibody was obtained from Cell Signaling (13E5) (catalog #4970, 1:1000). Anti-CD63 antibody was obtained from R&D Systems (catalog #MAB50482-SP, 1:1000).

A53T a-syn or EV rats = experiment: AAV-A53T a-syn rat model, high titer, TH+ neurons; format: in vivo; details: 6 weeks
Source text: Third, we used a preclinical rat model of PD in which SN degeneration is induced by AAV vector-mediated expression of human mutant A53T a-syn[18],[45]–[48] (Fig. 5A). […] (Fig. 5B, C). […] Furthermore, overexpression of A53T a-syn was associated with a reduction in LAMP1 positive puncta in the SN which was restored with PDpep1.3 (Figs. 5E, S5E). […] Forelimb asymmetry in the cylinder test is a behavioral impairment associated with SN degeneration which models bradykinesia, the cardinal motor abnormality in PD[49].
Adult female Sprague-Dawley rats (250–280 g; Envigo) were pair-housed in cages with wood bedding and had access to food and water ad libitum. […]
Immunofluorescence staining for a-syn, pS129 a-syn, TH, and LAMP1 was performed by washing free-floating sections with PBS-T (0.1% Tween-20 or 0.2% Triton-X-100) three times for 10 min each at room temperature. […] Sections were then mounted onto glass slides and allowed to dry and then Dako fluorescence mounting medium (Agilent) was applied, followed by coverslips.
Confocal images of immunofluorescent staining of midbrain sections were processed using HALO software (Indica Labs), which is a well validated tool for automatic quantification of neurons in brain tissue sections[70]–[72]. […] Levels of total a-syn were assessed in this ROI by measuring the area and intensity of anti-a-syn staining. […]

## DEEIERQLKALG [PDpep1.3]
CD63
  Effect on CD63 levels: return of CD63
A53T a-syn or EV rats
  Effect on neurodegeneration in SN: neurodegeneration was mitigated
